This is an account of results in patent publication US11339130B1 (Blade Therapeutics, Inc., priority 2016, dated 2022).

The target in one assay is T1, Human Calpain 9/NS1 (Homo sapiens, UniProt O14815).
T1 sequence (O14815 1-690): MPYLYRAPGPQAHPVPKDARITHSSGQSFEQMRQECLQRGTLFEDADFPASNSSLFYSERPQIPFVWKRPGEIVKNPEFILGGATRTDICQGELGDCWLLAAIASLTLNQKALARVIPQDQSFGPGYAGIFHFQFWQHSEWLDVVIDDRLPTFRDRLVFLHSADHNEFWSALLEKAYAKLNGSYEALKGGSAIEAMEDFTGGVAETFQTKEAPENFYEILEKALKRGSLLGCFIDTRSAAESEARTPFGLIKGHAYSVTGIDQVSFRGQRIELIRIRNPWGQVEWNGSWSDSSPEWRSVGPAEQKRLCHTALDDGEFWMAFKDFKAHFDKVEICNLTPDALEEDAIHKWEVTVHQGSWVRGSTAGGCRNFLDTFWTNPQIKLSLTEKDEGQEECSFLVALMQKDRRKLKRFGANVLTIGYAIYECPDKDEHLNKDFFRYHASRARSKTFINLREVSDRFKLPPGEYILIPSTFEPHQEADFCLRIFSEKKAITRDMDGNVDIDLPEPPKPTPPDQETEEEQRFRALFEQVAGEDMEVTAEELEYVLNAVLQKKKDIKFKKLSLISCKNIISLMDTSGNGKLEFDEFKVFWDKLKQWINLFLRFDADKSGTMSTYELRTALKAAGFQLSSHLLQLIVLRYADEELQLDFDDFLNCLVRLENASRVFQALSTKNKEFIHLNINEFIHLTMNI
T1 sequence (P04632 1-268 partner): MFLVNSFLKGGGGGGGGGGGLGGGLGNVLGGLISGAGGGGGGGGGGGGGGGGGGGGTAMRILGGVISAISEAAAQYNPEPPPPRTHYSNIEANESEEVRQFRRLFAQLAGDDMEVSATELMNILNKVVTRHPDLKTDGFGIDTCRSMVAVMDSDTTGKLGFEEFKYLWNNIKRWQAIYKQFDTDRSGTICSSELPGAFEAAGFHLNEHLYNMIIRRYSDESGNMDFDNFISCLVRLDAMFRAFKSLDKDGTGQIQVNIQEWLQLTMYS
Put plainly: Calpain inhibition continuous fluorescence (FRET) assay, Human Calpain 9/NS1. The assay is classed as biochemical. The conditions noted are these: read-out: Human Calpain 9/NS1 IC50. The procedure, abridged: (§1)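 Human calpains 1, 2 and 9 preincubated with inhibitor at 25 °C in 50 mM Tris pH 7.5, 100 mM NaCl, 1 mM DTT; reaction started with 5-FAM/QXL 520 FRET peptide plus CaCl2 for activation. Fluorescence (490/520 nm) followed 10 min; rates from 1-5 min slopes fitted to 4-parameter logistic for IC50.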

The subject of assay [1] is Calpain activity in SH-SY5Y cells. Kind of assay: SH-SY5Y + AMC fluorescence assay (Suc-LLVY-AMC substrate). The assay is classed as cell-based. The conditions noted are these: read-out: SH-SY5Y + AMC IC50.
The next assay concerns the target T2, Human Calpain 2/NS1 (Homo sapiens, UniProt P17655).
T2 sequence (P17655 1-700): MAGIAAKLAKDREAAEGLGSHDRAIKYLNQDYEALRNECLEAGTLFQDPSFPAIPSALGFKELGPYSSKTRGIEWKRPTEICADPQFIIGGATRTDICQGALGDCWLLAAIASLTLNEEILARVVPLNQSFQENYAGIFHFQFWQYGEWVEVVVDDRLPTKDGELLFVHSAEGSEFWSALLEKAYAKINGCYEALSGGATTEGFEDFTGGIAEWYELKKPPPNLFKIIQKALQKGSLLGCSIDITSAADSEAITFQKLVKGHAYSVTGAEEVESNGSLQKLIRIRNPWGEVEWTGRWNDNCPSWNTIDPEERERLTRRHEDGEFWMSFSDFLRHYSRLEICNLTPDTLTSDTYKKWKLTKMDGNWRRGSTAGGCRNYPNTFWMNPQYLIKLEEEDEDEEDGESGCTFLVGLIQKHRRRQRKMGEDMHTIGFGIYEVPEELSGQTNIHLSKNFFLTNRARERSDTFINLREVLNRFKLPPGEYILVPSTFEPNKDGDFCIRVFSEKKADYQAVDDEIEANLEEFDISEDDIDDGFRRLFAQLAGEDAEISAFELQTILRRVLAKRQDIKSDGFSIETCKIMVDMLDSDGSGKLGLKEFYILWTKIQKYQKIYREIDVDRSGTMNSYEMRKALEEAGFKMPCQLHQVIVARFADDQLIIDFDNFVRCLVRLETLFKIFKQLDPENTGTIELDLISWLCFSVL
T2 sequence (P04632 1-268 partner): T1 sequence (P04632 1-268 partner)
Kind of assay: Calpain inhibition continuous fluorescence (FRET) assay, Human Calpain 2/NS1. The class given is biochemical. The conditions noted are these: read-out: Human Calpain 2/NS1 IC50. In short, it runs like this:
as §1

Assay [2] concerns Calpain activity in SH-SY5Y cells (SBDP-150). Kind of assay: SH-SY5Y Spectrin western blot assay (SBDP-150 breakdown product, A23187-induced). The assay is classed as cell-based. The following applies: Homo sapiens, SH-SY5Y cells, read-out: SH-SY5Y Spectrin IC50. A general note: In western blotting, separated proteins are transferred to a membrane and probed.
The target of another assay is T3, Human Calpain 1/NS1 (Homo sapiens, UniProt P07384).
T3 sequence (P07384 1-714): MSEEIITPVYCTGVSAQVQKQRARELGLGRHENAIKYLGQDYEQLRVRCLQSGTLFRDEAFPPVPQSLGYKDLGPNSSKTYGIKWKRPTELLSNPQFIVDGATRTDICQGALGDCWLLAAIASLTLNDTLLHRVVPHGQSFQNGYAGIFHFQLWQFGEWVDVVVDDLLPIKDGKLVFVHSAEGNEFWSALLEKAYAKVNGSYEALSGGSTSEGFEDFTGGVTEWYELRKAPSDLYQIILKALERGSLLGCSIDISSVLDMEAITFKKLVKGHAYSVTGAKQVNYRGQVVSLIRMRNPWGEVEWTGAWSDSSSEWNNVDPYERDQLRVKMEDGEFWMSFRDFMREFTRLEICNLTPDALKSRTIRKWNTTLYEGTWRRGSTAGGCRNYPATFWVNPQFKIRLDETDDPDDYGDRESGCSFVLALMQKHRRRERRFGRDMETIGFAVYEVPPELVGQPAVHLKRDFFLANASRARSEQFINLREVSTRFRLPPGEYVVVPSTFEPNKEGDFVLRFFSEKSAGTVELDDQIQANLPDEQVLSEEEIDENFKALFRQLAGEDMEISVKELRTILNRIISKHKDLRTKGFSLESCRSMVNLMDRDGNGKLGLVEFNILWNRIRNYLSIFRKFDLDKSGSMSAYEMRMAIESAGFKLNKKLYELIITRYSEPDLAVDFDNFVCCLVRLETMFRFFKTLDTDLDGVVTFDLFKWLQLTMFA
T3 sequence (P04632 1-268 partner): T1 sequence (P04632 1-268 partner)
Kind of assay: Calpain inhibition continuous fluorescence (FRET) assay, Human Calpain 1/NS1. The assay is classed as biochemical. The conditions noted are these: read-out: Human Calpain 1/NS1 IC50. In short, it runs like this: as §1

The mark [3] stands for this setting: Column D, A23187-induced SBDP-150.
The mark [4] stands for this setting: A23187-induced SBDP-150, western blot.

Like-named read-outs stand apart in the source and are kept apart here.

For the compound `Cc1cccc(-c2nn(C)cc2C(=O)N[C@@H](Cc2ccccc2)C(=O)C(N)=O)c1` [Compound 163, (S)—N-(4-amino-3,4-dioxo-1-phenylbutan-2-yl)-1-methyl-3-(M-tolyl)-1H-pyrazole-4-carboxamide], the IC50 at Human Calpain 9/NS1 (Column C) is less than 3 µM; in assay [1] (Column E), 10 to 25 µM; at Human Calpain 2/NS1 (Column B) it was less than 3 µM; in assay [2] (setting [3]), 10 to 25 µM; on Human Calpain 1/NS1 (Column A), less than 3 µM.
As for `Cc1cc(C(=O)N[C@@H](Cc2ccccc2)C(=O)C(N)=O)n(-c2ccnc(C)n2)n1` [Compound 244, (S)—N-(4-amino-3,4-dioxo-1-phenylbutan-2-yl)-3-methyl-1-(2-methylpyrimidin-4-yl)-1H-pyrazole-5-carboxamide], the IC50 is less than 3 µM on Human Calpain 9/NS1 (Column C); less than 10 µM in assay [1] (Column E); less than 3 µM on Human Calpain 2/NS1 (Column B); more than 25 µM in assay [2] (setting [3]); less than 3 µM on Human Calpain 1/NS1 (Column A).
With `NC(=O)C(=O)C(Cc1ccccc1)NC(=O)c1cn(C(F)F)nc1-c1ccnc2ccccc12` (stereo not drawn) [Compound 596, N-(4-amino-3,4-dioxo-1-phenylbutan-2-yl)-1-(difluoromethyl)-3-(quinolin-4-yl)-1H-pyrazole-4-carboxamide], the IC50 on Human Calpain 9/NS1 is less than 3 µM; in assay [1] it was less than 10 µM; at Human Calpain 2/NS1, less than 3 µM; in assay [2] (setting [4]), 10 to 25 µM; on Human Calpain 1/NS1, less than 3 µM.
Consider `Cn1cc(C(=O)NC(Cc2ccccc2)C(=O)C(N)=O)c(-c2cc(F)ccc2F)n1` (stereo not drawn) [Compound 518, N-(4-amino-3,4-dioxo-1-phenylbutan-2-yl)-3-(2,5-difluorophenyl)-1-methyl-1H-pyrazole-4-carboxamide], for which the IC50 on Human Calpain 9/NS1 is less than 3 µM; in assay [1] it was less than 10 µM; at Human Calpain 2/NS1, less than 3 µM; in assay [2] (setting [4]), 10 to 25 µM; on Human Calpain 1/NS1, less than 3 µM.
As to `NC(=O)C(=O)C(Cc1ccccc1)NC(=O)c1cn(C(F)F)nc1-c1ccc2ccccc2n1` (stereo not drawn) [Compound 588, N-(4-amino-3,4-dioxo-1-phenylbutan-2-yl)-1-(difluoromethyl)-3-(quinolin-2-yl)-1H-pyrazole-4-carboxamide], the IC50 on Human Calpain 9/NS1 is less than 3 µM; in assay [1], more than 25 µM; on Human Calpain 2/NS1 it was less than 3 µM; in assay [2] (setting [4]) it was 10 to 25 µM; on Human Calpain 1/NS1, less than 3 µM.
Turning to `NC(=O)C(=O)C(Cc1ccccc1)NC(=O)c1cn(-c2ccc(F)cc2)nc1-c1ccccc1` (stereo not drawn) [Compound 529, N-(4-amino-3,4-dioxo-1-phenylbutan-2-yl)-1-(4-fluorophenyl)-3-phenyl-1H-pyrazole-4-carb oxamide], the IC50 is less than 3 µM on Human Calpain 9/NS1; less than 10 µM in assay [1]; less than 3 µM at Human Calpain 2/NS1; more than 25 µM in assay [2] (setting [4]); less than 3 µM at Human Calpain 1/NS1.
Consider `NC(=O)C(=O)C(Cc1ccccc1)NC(=O)c1cn(C(F)F)nc1-c1ccc2cccnc2c1` (stereo not drawn) [Compound 575, N-(4-amino-3,4-dioxo-1-phenylbutan-2-yl)-1-(difluoromethyl)-3-(quinolin-7-yl)-1H-pyrazole-4-carboxamide], for which the IC50 at Human Calpain 9/NS1 is less than 3 µM; in assay [1], more than 25 µM; on Human Calpain 2/NS1 it was less than 3 µM; in assay [2] (setting [4]), less than 10 µM; on Human Calpain 1/NS1, less than 3 µM.
Turning to `Cn1cc(C(=O)NC(Cc2ccccc2)C(=O)C(N)=O)c(-c2cccc3cnccc23)n1` (stereo not drawn) [Compound 607, N-(4-amino-3,4-dioxo-1-phenylbutan-2-yl)-3-(isoquinolin-5-yl)-1-methyl-1H-pyrazole-4-carboxamide], the IC50 on Human Calpain 9/NS1 was less than 3 µM; in assay [1], more than 25 µM; at Human Calpain 2/NS1, less than 3 µM; in assay [2] (setting [4]), 10 to 25 µM; on Human Calpain 1/NS1, less than 3 µM.
As for `NC(=O)C(=O)C(Cc1ccccc1)NC(=O)c1cnoc1-c1cccc(F)c1` (stereo not drawn) [Compound 559, N-(4-amino-3,4-dioxo-1-phenylbutan-2-yl)-5-(3-fluorophenyl)isoxazole-4-carboxamide], the IC50 is less than 3 µM on Human Calpain 9/NS1; more than 25 µM in assay [1]; less than 3 µM at Human Calpain 2/NS1; 10 to 25 µM in assay [2] (setting [4]); less than 3 µM on Human Calpain 1/NS1.
Consider `Cc1cc(C(=O)NC(C=O)Cc2ccccc2)n(-c2ccccn2)n1` (stereo not drawn) [Compound 398, 3-methyl-N-(1-oxo-3-phenylpropan-2-yl)-1-(pyridin-2-yl)-1H-pyrazole-5-carboxamide], for which the IC50 on Human Calpain 9/NS1 was less than 3 µM; in assay [1], more than 25 µM; at Human Calpain 2/NS1, less than 3 µM; in assay [2] (setting [4]) it was more than 25 µM; on Human Calpain 1/NS1, less than 3 µM.
Regarding `NC(=O)C(=O)C(Cc1ccccc1)NC(=O)c1cn(C(F)F)nc1-c1cncc2ccccc12` (stereo not drawn) [Compound 561, N-(4-amino-3,4-dioxo-1-phenylbutan-2-yl)-1-(difluoromethyl)-3-(isoquinolin-4-yl)-1H-pyrazole-4-carboxamide], the IC50 is less than 3 µM on Human Calpain 9/NS1; 10 to 25 µM in assay [1]; less than 3 µM at Human Calpain 2/NS1; 10 to 25 µM in assay [2] (setting [4]); less than 3 µM at Human Calpain 1/NS1.
For the compound `COc1nccc(-n2nc(C)cc2C(=O)NC(Cc2ccccc2)C(=O)C(N)=O)n1` (stereo not drawn) [Compound 436, N-(4-amino-3,4-dioxo-1-phenylbutan-2-yl)-1-(2-methoxypyrimidin-4-yl)-3-methyl-1H-pyrazole-5-carboxamide], the IC50 was less than 3 µM on Human Calpain 9/NS1; less than 10 µM in assay [1]; less than 3 µM at Human Calpain 2/NS1; more than 25 µM in assay [2] (setting [4]); less than 3 µM on Human Calpain 1/NS1.
